Laboratory results reported in ChEMBL document CHEMBL1201862, “PubChem BioAssay data set” (2004).
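Compound exposure: 48 hours, 5 concentrations, 96-well plates. GI50 marks 50% less growth.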 Active and inactive are the calls of the source. Rule as the data show it: active = GI50 up to about 1.1 µM and inactive = higher.

What was measured:
Experiment in all cases: NCI anticancer screen, dose series, 48 h
A549 = tested on: A549
OVCAR-8 = tested on: OVCAR-8
HL-60 = tested on: HL-60
HOP-92 = tested on: HOP-92
K562 = tested on: K562
NCI-H226 = tested on: NCI-H226
SF-295 = tested on: SF-295
SK-MEL-28 = tested on: SK-MEL-28
NCI-H522 = tested on: NCI-H522
OVCAR-5 = tested on: OVCAR-5
MDA-MB-231 = tested on: MDA-MB-231
IGROV-1 = tested on: IGROV-1
RXF 393 = tested on: RXF 393
KM12 = tested on: KM12
Malme-3M = tested on: Malme-3M
Hs-578T = tested on: Hs-578T
U-251 = tested on: U-251
SK-OV-3 = tested on: SK-OV-3
786-0 = tested on: 786-0
SR = tested on: SR

SMILES | GI50 (A549) | GI50 (OVCAR-8) | GI50 (HL-60) | GI50 (HOP-92) | GI50 (K562) | GI50 (NCI-H226) | GI50 (SF-295) | GI50 (SK-MEL-28) | GI50 (NCI-H522) | GI50 (OVCAR-5) | GI50 (MDA-MB-231) | GI50 (IGROV-1) | GI50 (RXF 393) | GI50 (KM12) | GI50 (Malme-3M) | GI50 (Hs-578T) | GI50 (U-251) | GI50 (SK-OV-3) | GI50 (786-0) | GI50 (SR)
CCOC(=O)c1c2c(n(Cc3ccccc3)c1C)C(=O)C(=O)c1ccccc1-2 | 0.431 µM (active) | 0.237 µM (active) | 0.0129 µM (active) | 0.802 µM (active) | 0.122 µM (active) | 0.55 µM (active) | 0.497 µM (active) | 0.177 µM (active) | 0.778 µM (active) | 0.541 µM (active) | 0.351 µM (active) | 1.15 µM (inactive) | 0.703 µM (active) | 0.574 µM (active) | 0.0968 µM (active) | 0.925 µM (active) | 0.263 µM (active) | 0.61 µM (active) | 0.56 µM (active) | –
CN1C(=O)C(O)CC1c1ccc(C(F)(F)F)cc1 (centres undefined) | > 100 µM (inactive) | > 100 µM (inactive) | > 100 µM (inactive) | > 100 µM (inactive) | > 100 µM (inactive) | > 100 µM (inactive) | > 100 µM (inactive) | > 100 µM (inactive) | > 100 µM (inactive) | > 100 µM (inactive) | > 100 µM (inactive) | > 100 µM (inactive) | > 100 µM (inactive) | > 100 µM (inactive) | > 100 µM (inactive) | > 100 µM (inactive) | > 100 µM (inactive) | > 100 µM (inactive) | > 100 µM (inactive) | –
OCN(CO)c1ccc2c(c1)Cc1cc(F)ccc1-2 | 21.9 µM (inactive) | 19.7 µM (inactive) | 29.1 µM (inactive) | – | 20.9 µM (inactive) | 15.7 µM (inactive) | 15.3 µM (inactive) | 24 µM (inactive) | 19.5 µM (inactive) | 19.1 µM (inactive) | 16.4 µM (inactive) | 19.3 µM (inactive) | 24 µM (inactive) | 17.8 µM (inactive) | 18.1 µM (inactive) | 12 µM (inactive) | 17.9 µM (inactive) | 25.2 µM (inactive) | 30.1 µM (inactive) | 22.6 µM (inactive)
COc1ccc(C(=O)N2CCN(c3ccc4c(c3)OCC(=O)N4)CC2)cc1 | > 100 µM (inactive) | > 100 µM (inactive) | 64.6 µM (inactive) | > 100 µM (inactive) | – | > 100 µM (inactive) | > 100 µM (inactive) | > 100 µM (inactive) | 95.9 µM (inactive) | > 100 µM (inactive) | > 100 µM (inactive) | > 100 µM (inactive) | – | > 100 µM (inactive) | > 100 µM (inactive) | > 100 µM (inactive) | > 100 µM (inactive) | > 100 µM (inactive) | > 100 µM (inactive) | 67.3 µM (inactive)
S=C(c1c[nH]c2ccccc12)N1CCCCC1 | – | > 100 µM (inactive) | 70.6 µM (inactive) | – | 72.4 µM (inactive) | > 100 µM (inactive) | 62.1 µM (inactive) | > 100 µM (inactive) | – | > 100 µM (inactive) | > 100 µM (inactive) | 67.9 µM (inactive) | 62.5 µM (inactive) | > 100 µM (inactive) | > 100 µM (inactive) | > 100 µM (inactive) | 64.9 µM (inactive) | > 100 µM (inactive) | > 100 µM (inactive) | > 100 µM (inactive)
CC1(C)OC(C(C)(C)O)C(C(C)(C)O)O1 (centres undefined) | > 100 µM (inactive) | > 100 µM (inactive) | > 100 µM (inactive) | – | > 100 µM (inactive) | > 100 µM (inactive) | > 100 µM (inactive) | > 100 µM (inactive) | > 100 µM (inactive) | > 100 µM (inactive) | > 100 µM (inactive) | > 100 µM (inactive) | 39 µM (inactive) | > 100 µM (inactive) | > 100 µM (inactive) | > 100 µM (inactive) | > 100 µM (inactive) | > 100 µM (inactive) | > 100 µM (inactive) | > 100 µM (inactive)
COC(=O)c1cc2c(o1)Sc1ccccc1NC2=O | > 100 µM (inactive) | 68.5 µM (inactive) | > 100 µM (inactive) | > 100 µM (inactive) | > 100 µM (inactive) | > 100 µM (inactive) | > 100 µM (inactive) | > 100 µM (inactive) | 2.75 µM (inactive) | > 100 µM (inactive) | > 100 µM (inactive) | > 100 µM (inactive) | – | > 100 µM (inactive) | – | 27.7 µM (inactive) | 83.2 µM (inactive) | > 100 µM (inactive) | 87.1 µM (inactive) | > 100 µM (inactive)
